In the supplement of paper PMC10307832:

Experiments:
Assay in all cases: relative viability (nuclei count vs DMSO), 5 days (fraction); higher = more cells survive
A549 = system: A549
Summary of the method: (§1)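 Lung cancer cell lines were pin-tool dosed in 1536-well plates on the day after seeding, with either a lone drug or a fixed anchor-drug dose plus five library-drug doses (not always all listed) in √10 steps. Nuclei were counted on 4× images after 5 days. Relative viability is the ratio of treated-well to vehicle-well nuclei counts, with each value a median of duplicate plates.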

CAL-12T = system: CAL-12T
Summary of the method: as §1

Calu-6 = system: Calu-6
Summary of the method: as §1

EBC-1 = system: EBC-1
Summary of the method: as §1

IA-LM = system: IA-LM
Summary of the method: as §1

LK-2 = system: LK-2
Summary of the method: as §1

NCI-H1299 = system: NCI-H1299
Summary of the method: as §1

NCI-H1650 = system: NCI-H1650
Summary of the method: as §1

NCI-H1703 = system: NCI-H1703
Summary of the method: as §1

CC1(C)CCC(c2ccc(Cl)cc2)=C(CN2CCN(c3ccc(C(=O)NS(=O)(=O)c4ccc(N[C@H](CCN5CCOCC5)CSc5ccccc5)c(S(=O)(=O)C(F)(F)F)c4)cc3)CC2)C1 [Navitoclax] + CS(=O)(=O)CCNCc1ccc(-c2ccc3ncnc(Nc4ccc(OCc5cccc(F)c5)c(Cl)c4)c3c2)o1 [Lapatinib] (partner 2 µM)
relative viability (A549; first compound 0.005 µM): 1.06 | relative viability (A549; first compound 0.01581 µM): 1.02 | relative viability (A549; first compound 0.05 µM): 1.07 | relative viability (A549; first compound 0.1581 µM): 0.945 | relative viability (A549; first compound 0.5 µM): 0.949 | relative viability (CAL-12T; first compound 0.005 µM): 0.751 | relative viability (CAL-12T; first compound 0.01581 µM): 0.504 | relative viability (CAL-12T; first compound 0.05 µM): 0.589 | relative viability (CAL-12T; first compound 0.1581 µM): 0.738 | relative viability (CAL-12T; first compound 0.5 µM): 0.637 | relative viability (Calu-6; first compound 0.005 µM): 1.14 | relative viability (Calu-6; first compound 0.01581 µM): 1.13 | relative viability (Calu-6; first compound 0.05 µM): 1.05 | relative viability (Calu-6; first compound 0.1581 µM): 1.04 | relative viability (Calu-6; first compound 0.5 µM): 1.01 | relative viability (EBC-1; first compound 0.005 µM): 0.181 | relative viability (EBC-1; first compound 0.01581 µM): 0.2 | relative viability (EBC-1; first compound 0.05 µM): 0.193 | relative viability (EBC-1; first compound 0.1581 µM): 0.245 | relative viability (EBC-1; first compound 0.5 µM): 0.212 | relative viability (IA-LM; first compound 0.005 µM): 0.659 | relative viability (IA-LM; first compound 0.01581 µM): 1.16 | relative viability (IA-LM; first compound 0.05 µM): 1.06 | relative viability (IA-LM; first compound 0.1581 µM): 1.02 | relative viability (IA-LM; first compound 0.5 µM): 0.903 | relative viability (LK-2; first compound 0.005 µM): 0.802 | relative viability (LK-2; first compound 0.01581 µM): 1.08 | relative viability (LK-2; first compound 0.05 µM): 1.04 | relative viability (LK-2; first compound 0.1581 µM): 0.886 | relative viability (LK-2; first compound 0.5 µM): 1.05 | relative viability (NCI-H1299; first compound 0.005 µM): 0.931 | relative viability (NCI-H1299; first compound 0.01581 µM): 0.956 | relative viability (NCI-H1299; first compound 0.05 µM): 1 | relative viability (NCI-H1299; first compound 0.1581 µM): 0.979 | relative viability (NCI-H1299; first compound 0.5 µM): 1 | relative viability (NCI-H1650; first compound 0.005 µM): 0.818 | relative viability (NCI-H1650; first compound 0.01581 µM): 1.07 | relative viability (NCI-H1650; first compound 0.05 µM): 0.88 | relative viability (NCI-H1650; first compound 0.1581 µM): 1.02 | relative viability (NCI-H1650; first compound 0.5 µM): 0.957 | relative viability (NCI-H1703; first compound 0.005 µM): 0.928 | relative viability (NCI-H1703; first compound 0.01581 µM): 1.18 | relative viability (NCI-H1703; first compound 0.05 µM): 1.34 | relative viability (NCI-H1703; first compound 0.1581 µM): 1.27 | relative viability (NCI-H1703; first compound 0.5 µM): 1.01

C=C1C(=O)O[C@@H](CCCCCCCC)[C@@H]1C(=O)O [C-75] + C[C@@H](Oc1cc(-c2cnn(C3CCNCC3)c2)cnc1N)c1c(Cl)ccc(F)c1Cl [Crizotinib] (partner 1 µM)
relative viability (A549; first compound 0.08 µM): 0.763 | relative viability (A549; first compound 0.253 µM): 0.715 | relative viability (A549; first compound 0.8 µM): 0.651 | relative viability (A549; first compound 2.53 µM): 0.81 | relative viability (A549; first compound 8 µM): 0.593 | relative viability (CAL-12T; first compound 0.08 µM): 0.597 | relative viability (CAL-12T; first compound 0.253 µM): 0.626 | relative viability (CAL-12T; first compound 0.8 µM): 0.586 | relative viability (CAL-12T; first compound 8 µM): 0.849 | relative viability (Calu-6; first compound 0.08 µM): 0.816 | relative viability (Calu-6; first compound 0.253 µM): 0.824 | relative viability (Calu-6; first compound 0.8 µM): 0.711 | relative viability (Calu-6; first compound 2.53 µM): 0.623 | relative viability (Calu-6; first compound 8 µM): 0.761 | relative viability (EBC-1; first compound 0.08 µM): 0.179 | relative viability (EBC-1; first compound 0.253 µM): 0.184 | relative viability (EBC-1; first compound 0.8 µM): 0.225 | relative viability (EBC-1; first compound 2.53 µM): 0.179 | relative viability (EBC-1; first compound 8 µM): 0.211 | relative viability (IA-LM; first compound 0.08 µM): 0.956 | relative viability (IA-LM; first compound 0.253 µM): 1.09 | relative viability (IA-LM; first compound 8 µM): 0.504 | relative viability (LK-2; first compound 0.08 µM): 0.239 | relative viability (LK-2; first compound 0.253 µM): 0.208 | relative viability (LK-2; first compound 0.8 µM): 0.231 | relative viability (LK-2; first compound 2.53 µM): 0.239 | relative viability (LK-2; first compound 8 µM): 0.246 | relative viability (NCI-H1299; first compound 0.08 µM): 0.939 | relative viability (NCI-H1299; first compound 0.253 µM): 0.932 | relative viability (NCI-H1299; first compound 0.8 µM): 0.967 | relative viability (NCI-H1299; first compound 2.53 µM): 0.853 | relative viability (NCI-H1299; first compound 8 µM): 0.927 | relative viability (NCI-H1650; first compound 0.08 µM): 0.961 | relative viability (NCI-H1650; first compound 0.253 µM): 1.1 | relative viability (NCI-H1650; first compound 0.8 µM): 0.972 | relative viability (NCI-H1650; first compound 2.53 µM): 1.12 | relative viability (NCI-H1650; first compound 8 µM): 1.21 | relative viability (NCI-H1703; first compound 0.08 µM): 0.688 | relative viability (NCI-H1703; first compound 0.8 µM): 0.495 | relative viability (NCI-H1703; first compound 2.53 µM): 0.683 | relative viability (NCI-H1703; first compound 8 µM): 0.587

O=C(O)c1ccc(-c2c[nH]c3ncc(-c4ccccc4)cc23)cc1C1CCCC1 + CC1(C)CCC(c2ccc(Cl)cc2)=C(CN2CCN(c3ccc(C(=O)NS(=O)(=O)c4ccc(N[C@H](CCN5CCOCC5)CSc5ccccc5)c(S(=O)(=O)C(F)(F)F)c4)cc3)CC2)C1 [Navitoclax] (partner 0.5 µM)
relative viability (A549; first compound 0.04 µM): 1.09 | relative viability (A549; first compound 0.1265 µM): 1.24 | relative viability (A549; first compound 0.4 µM): 1.17 | relative viability (A549; first compound 1.265 µM): 0.939 | relative viability (CAL-12T; first compound 0.04 µM): 1.26 | relative viability (CAL-12T; first compound 0.1265 µM): 1.21 | relative viability (CAL-12T; first compound 0.4 µM): 1.11 | relative viability (CAL-12T; first compound 1.265 µM): 1.05 | relative viability (Calu-6; first compound 0.04 µM): 0.821 | relative viability (Calu-6; first compound 0.1265 µM): 0.732 | relative viability (Calu-6; first compound 0.4 µM): 0.719 | relative viability (Calu-6; first compound 1.265 µM): 0.55 | relative viability (EBC-1; first compound 0.04 µM): 0.475 | relative viability (EBC-1; first compound 0.1265 µM): 0.404 | relative viability (EBC-1; first compound 0.4 µM): 0.352 | relative viability (EBC-1; first compound 1.265 µM): 0.279 | relative viability (IA-LM; first compound 0.04 µM): 0.925 | relative viability (IA-LM; first compound 0.1265 µM): 0.829 | relative viability (IA-LM; first compound 0.4 µM): 0.89 | relative viability (IA-LM; first compound 1.265 µM): 0.576 | relative viability (LK-2; first compound 0.04 µM): 0.9 | relative viability (LK-2; first compound 0.1265 µM): 0.876 | relative viability (LK-2; first compound 0.4 µM): 0.795 | relative viability (LK-2; first compound 1.265 µM): 0.687 | relative viability (NCI-H1299; first compound 0.04 µM): 1.07 | relative viability (NCI-H1299; first compound 0.1265 µM): 1.08 | relative viability (NCI-H1299; first compound 0.4 µM): 1.02 | relative viability (NCI-H1299; first compound 1.265 µM): 0.942 | relative viability (NCI-H1650; first compound 0.04 µM): 1.17 | relative viability (NCI-H1650; first compound 0.1265 µM): 1.14 | relative viability (NCI-H1650; first compound 0.4 µM): 0.774 | relative viability (NCI-H1650; first compound 1.265 µM): 0.914 | relative viability (NCI-H1703; first compound 0.1265 µM): 1.11 | relative viability (NCI-H1703; first compound 0.4 µM): 1.03 | relative viability (NCI-H1703; first compound 1.265 µM): 1.11
